Results on 18 molecules are retold here after patent US5453533A (priority 1994, dated 1995).

“Also recorded” adds a separate entry of the source. Like-named read-outs stand apart in the source and are kept apart here.

The target of test [1] is T1, N2 (A/Tokyo/67) neuraminidase (Influenza A virus, UniProt P06820). In words: biochemical. Also on record: species or system influenza A virus (A/Tokyo/67).
The target of test [2] is T2, type B (B/Memphis/3/89) neuraminidase (Influenza B virus (B/Memphis/3/89), UniProt P16199). The format is biochemical. Particulars: read-out: IC50, Fetuin substrate, B/Mem/89.
The test system of a further test is influenza B. Particulars: cited from earlier work.
A further test relates to influenza subtype A. Particulars: cited from earlier work.
Test [3] addresses T2, type B (B/Memphis/3/89) neuraminidase. The format is biochemical. The following applies: read-out: IC50, MUN substrate, B/Mem/89.
In test [4] the target is N2 (Influenza A virus (A/Tokyo/3/1967(H2N2)), UniProt P06820). The format is binding.
Test [5] has as its target T1, N2 (A/Tokyo/67) neuraminidase. Description: biochemical. Also noted: species or system influenza A virus (A/Tokyo/67). The source holds these as a separate data set.
The target in another test is influenza A neuramidase. The following applies: Taylor & von Itzstein, 1994; cited from earlier work.
The target in a further test is influenza neuraminidase. The following applies: cited from earlier work.
In test [6] the test system is influenza NA. The format is biochemical, influenza virus type A or type B.
For test [7], the system named is Influenza NA. Particulars: trisaccharide substrate; cited from earlier work.
Setting [8] is: whole virus, 50% inhibition of NA activity, MUN, 15 minutes at 37° C, pH 6.0.

T2 sequence (P16199 whole entry, looked up): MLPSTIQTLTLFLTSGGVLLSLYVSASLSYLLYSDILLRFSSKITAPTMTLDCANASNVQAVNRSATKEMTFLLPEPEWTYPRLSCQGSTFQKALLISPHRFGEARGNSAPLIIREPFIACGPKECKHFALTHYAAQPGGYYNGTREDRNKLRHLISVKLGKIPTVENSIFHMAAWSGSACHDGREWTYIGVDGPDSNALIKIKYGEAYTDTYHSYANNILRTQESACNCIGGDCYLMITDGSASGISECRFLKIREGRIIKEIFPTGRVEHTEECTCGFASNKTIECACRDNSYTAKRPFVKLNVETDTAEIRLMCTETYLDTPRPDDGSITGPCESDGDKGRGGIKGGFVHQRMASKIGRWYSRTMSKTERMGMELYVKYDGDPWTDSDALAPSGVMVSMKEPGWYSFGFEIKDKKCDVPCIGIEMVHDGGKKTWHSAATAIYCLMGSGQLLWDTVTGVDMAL
T1 sequence (P06820 whole entry, looked up): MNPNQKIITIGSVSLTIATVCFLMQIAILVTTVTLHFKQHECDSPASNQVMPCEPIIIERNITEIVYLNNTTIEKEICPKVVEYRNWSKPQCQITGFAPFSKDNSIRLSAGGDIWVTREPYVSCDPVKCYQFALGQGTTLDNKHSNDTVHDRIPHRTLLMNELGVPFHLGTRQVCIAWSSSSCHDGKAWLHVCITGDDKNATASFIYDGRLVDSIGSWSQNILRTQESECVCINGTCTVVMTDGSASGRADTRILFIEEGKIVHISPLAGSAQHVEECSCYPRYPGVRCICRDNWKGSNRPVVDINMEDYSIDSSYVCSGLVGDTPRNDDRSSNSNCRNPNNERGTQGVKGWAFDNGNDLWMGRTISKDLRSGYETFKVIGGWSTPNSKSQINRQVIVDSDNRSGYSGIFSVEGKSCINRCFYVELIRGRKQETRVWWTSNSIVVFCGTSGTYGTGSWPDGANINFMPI
Chain of N2 (Influenza A virus (A/Tokyo/3/1967(H2N2)), UniProt P06820) (P06820 whole entry, looked up): as above

In the case of `CC(=O)Nc1ccc(C(=O)O)cc1NC(=O)CN` [Compound 111, 4-(acetylamino)-3-[(aminoacetyl)amino]benzoic acid], the IC50 in test [1] and in test [2] was 5 mM throughout.
Turning to `CC(N)C12CC3CC(CC(C3)C1)C2` (stereo not shown) [rimantadine], the “effect on influenza B” value in the test with influenza B is reported as “no effect on influenza B”. Moreover, the “effect against influenza A” value in the test with influenza subtype A is listed as “effective only against influenza subtype A”.
Regarding `CC(=O)Nc1c(N)cc(C(=O)O)cc1O.Cl` [Compound 106, 3-amino-4-(acetylamino)-5-hydroxybenzoic acid, hydrochloride], the IC50 in test [1] was above 10 mM; in [3] (pH 6), 10 mM; in test [2], above 10 mM; in [5], above 10 mM. Moreover, in test [4], the “binding to N2” value is “bind fairly well”.
Regarding `NC12CC3CC(CC(C3)C1)C2` [amantadine], the “effect on influenza B” value in the test with influenza B is reported as “no effect on influenza B”. In addition, the “effect against influenza A” value in the test with influenza subtype A is “effective only against influenza subtype A”.
One may read the Ki as the dissociation constant of the complex between target and ligand, obtained from inhibition or displacement. As to `CC(=O)N[C@H]1[C@H]([C@H](O)[C@H](O)CO)OC(C(=O)O)=C[C@@H]1O` [DANA, 2-deoxy-2,3-dehydro-N-acetylneuraminic acid, reference compound], the IC50 in test [1], in test [3] (pH 6), in [2] and in test [5] was 0.015 mM in each case. The Ki at influenza A neuramidase was 0.004 mM; at influenza neuraminidase (in vitro, influenza neuraminidase) it was 0.01 mM.
As for `CC(=O)Nc1ccc(C(=O)O)cc1NC(=O)CO` [Compound 109, 4-(acetylamino)-3-[(hydroxyacetyl)amino]benzoic acid], the IC50 in test [1] was 4 mM; in [3] (pH 6) it was 3 mM; in test [2], 10 mM; in test [5] it was above 10 mM.
In the case of `CC(=O)Nc1cc([N+](=O)[O-])c(C(=O)O)c([N+](=O)[O-])c1O` [Compound 103, 4-(acetylamino)-3-hydroxy-2,6-dinitrobenzoic acid], the IC50 in test [3] (pH 6) came out at 1 mM; in [2], 4 mM.
For the molecule `CC(=O)Nc1c(OC(C)=O)cc(C(=O)O)cc1[N+](=O)[O-]` [Compound 104, 3-acetoxy-4-(acetylamino)-5-nitrobenzoic acid], the IC50 in test [3] (pH 6) turned out to be 2 mM; in test [2], 5 mM.
In the case of `CC(=O)N[C@H]1[C@H]([C@H](O)[C@H](O)CO)OC(O)(C(=O)O)C[C@@H]1O` (stereo partly shown) [sialic acid, N-acetylneuraminic acid, reference compound], the IC50 is above 10 mM in [3] (setting [8]); 10 mM in the test with influenza NA [6] (whole virus screen, MUN and fetuin, read-out: IC50 (modest product inhibitor)). The Ki at influenza neuraminidase was around 1 mM.
On to `CC(=O)Nc1c(O)cc(C(=O)O)cc1[N+](=O)[O-]` [Compound 105, 4-(acetylamino)-3-hydroxy-5-nitrobenzoic acid], for which the IC50 in test [3] (pH 6) was 0.75 mM; in [2], 1 mM. Moreover, the “binding to N2” value in [4] was “binds strongest to N2”. In addition, the “Activity compared with sialic acid” value in the test with influenza NA [6] is given as “significantly more potent than sialic acid; also recorded: enhanced activity”.
On to `CC(=O)Nc1ccc(C(=O)O)cc1O` [Compound 101, 4-(acetylamino)-3-hydroxybenzoic acid], for which the IC50 in test [1] is above 10 mM; in test [3] (pH 6), above 10 mM; in [2] it was 10 mM; in test [5], 10 mM. Also, the “Change in activity from nitro group alone or phenol OH alone” value in the test with influenza NA [6] is on record as “did not result in significant changes in activity”.
`CC(=O)Nc1ccc(C(=O)O)cc1[N+](=O)[O-]` [Compound 107]: the IC50 is 5 mM in test [1]; 5 mM in [3] (setting [8]); 5 mM in test [2] (whole virus, 50% inhibition of NA activity, fetuin); 5 mM in [5]. Further, in the test with influenza NA [6], the “Change in activity from nitro group alone or phenol OH alone” value is on record as “did not result in significant changes in activity”.
With `O=C(O)C1=C[C@H](O)[C@@H](NC(=O)C(F)(F)F)[C@H]([C@H](O)[C@H](O)CO)O1` [FANA, 2-deoxy-2,3-dehydro-N-(trifiuoroacetyl)neuraminic acid], the “in vitro activity compared with DANA” value in the test with influenza neuraminidase (Palese and Compans, 1976) was “greater in vitro activity”.
Turning to `CC(=O)Nc1ccc(C(=O)O)cc1NC(=O)C(O)CO` (stereo not shown) [Compound 110, 4-(acetylamino)-3-[(2,3-dihydroxypropionyl)amino]benzoic acid], the IC50 in test [3] (pH 6) was 8 mM; in test [2] it was above 10 mM.
In the case of `CC(=O)Nc1ccc(C(=O)O)cc1N` [Compound 108, 4-(acetylamino)-3-aminobenzoic acid], the IC50 is above 10 mM in test [1], above 20 mM in test [3] (pH 6) and above 10 mM in test [5]. Besides, the “binding to N2” value in [4] was “binds the weakest to N2”.
Regarding `CC(=O)Nc1ccc(C(=O)O)cc1OC(C)=O` [Compound 102, 4-(acetylamino)-3-acetoxybenzoic acid], the IC50 in test [1] was above 10 mM; in test [3] (pH 6), above 10 mM; in [2] it was 5 mM; in test [5] it was 10 mM.
Usually Km stands for the concentration of substrate that gives half-maximal velocity. For the molecule N-acetyl neuraminyl lactose, the Michaelis-Menten constant (Km) in the test with Influenza NA [7] is around 400 µM.
In the case of `CC(=O)Nc1ccc(C(=O)O)cc1NC(=O)CCCN` [Compound 112, 4-(acetylamino)-3-[(4-aminobutanoyl)amino]benzoic acid], the IC50 in [1], in [3] (pH 6), in [2] and in test [5] was above 10 mM each time.
